We go through one molecule from patent US4127671A, “P-acetamidophenyl diethylaminoacetate” (Societe Anonyme dite: HEXACHIME, priority 1977, dated 1978).

Each structure is given as a SMILES string.

The subject of data set [1] is reactions of pain (abdominal twists), phenyl benzoquinone. Description: analgesic action: inhibition of phenyl benzoquinone-induced reactions of pain (abdominal twists). It is filed as in vivo, male mice (SPF, OFI strain). Particulars: mice, pain reactions counted from 5 to 10 minute. The method, then: (§1) The analgesic action of the product was determined by the following method: batches of 6 male mice (SPF, OFI strain), weighing 19 to 20 g, received the test product by intravenous means. 0.3 c.c. per mouse of a 0.02% solution of phenyl benzoquinone was simultaneously injected by intraperitoneal means and the number of reactions of pain (abdominal twists) was counted from the 5 to the 10 minute after the latter treatment.
The following Table I gives the inhibitory percentage of these reactions.

Data set [2] can be described thus: stability of aqueous solutions. In kind it is physicochemical. The settings on record: with the passage of time.
The nature of another data set: solubility in water. The settings on record: novel derivative. In kind it is physicochemical.
Data set [3] is described as follows: pharmacological properties compared with paracetamol. It is filed as in vivo. The method, then: as §1
The antihyperthermisant action of the product according to the invention was determined by the following method: batches of 5 male Fauve de Bourgogne rabbits weighing 2 to 3 kg receive by intraveneous means 1 c.c./kg of an endotoxin solution of Salmonella abortus equivalent to 1 γ/kg in the physiological serum.
Two and a half hours later, the test product was administered in a physiological solution by intraveneous means.
The rectal temperature was recorded at regular intervals by an Ellab thermocouple. The probe was pressed 80 mm in.

The nature of data set [4]: release of p-acetamidophenol in the organism.

For the molecule `CCN(CC)CC(=O)Oc1ccc(NC(C)=O)cc1` [p-acetamidophenyl diethylaminoacetate], the “% of inhibition” value in data set [1] (8 mg/kg I.V.) is given as 26%; in data set [1] (16 mg/kg I.V.), 41%; in data set [1] (32 mg/kg I.V.) it was 68%; in data set [1] (64 mg/kg I.V.), 94%. Moreover, in data set [2], the “stability of aqueous solutions” value was “stable with the passage of time”. Further, in “solubility in water”, the solubility in water result is “very soluble in water”. Also, the pharmacological properties entry in data set [3] was “comparable to those of paracetamol”. Further, the release of p-acetamidophenol entry in data set [4] is “rapidly releases p-acetamidophenol”.
